Laboratory results: patent US9102591B2, “Benzamides” (H. Lundbeck A/S, priority 2012, dated 2015)

What follows are compounds tested against P2X7 receptor (Homo sapiens (Human), UniProt Q99572) (assay: P2X7 FLIPR assay (BzATP-stimulated calcium fluorescence, antagonist IC50)). Conditions: not given.
Assay type: cell-based
Summary of the method: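 Cells expressing P2X7 receptor (human, rat or mouse), plated 24 hours earlier in low-serum medium, loaded with Fluo-4 NW dye (30 min 37° C, 30 min room temperature).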

Sequence of P2X7 receptor (Q99572 whole entry): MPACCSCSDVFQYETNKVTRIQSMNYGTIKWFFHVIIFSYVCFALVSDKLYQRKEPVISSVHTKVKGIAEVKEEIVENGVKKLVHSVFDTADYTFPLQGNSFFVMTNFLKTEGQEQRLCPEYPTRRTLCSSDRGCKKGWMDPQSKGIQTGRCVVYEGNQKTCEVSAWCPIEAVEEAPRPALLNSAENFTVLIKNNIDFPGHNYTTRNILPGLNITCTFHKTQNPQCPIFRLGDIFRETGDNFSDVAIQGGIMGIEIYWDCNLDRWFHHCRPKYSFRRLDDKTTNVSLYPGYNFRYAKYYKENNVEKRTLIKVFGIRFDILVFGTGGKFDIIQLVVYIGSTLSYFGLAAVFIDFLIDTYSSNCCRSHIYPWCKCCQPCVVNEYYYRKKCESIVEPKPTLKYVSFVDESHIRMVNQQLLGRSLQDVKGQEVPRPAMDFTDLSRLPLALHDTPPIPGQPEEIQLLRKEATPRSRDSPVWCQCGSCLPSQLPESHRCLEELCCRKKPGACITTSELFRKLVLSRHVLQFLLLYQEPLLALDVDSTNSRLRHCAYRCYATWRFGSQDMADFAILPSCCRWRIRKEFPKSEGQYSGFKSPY

| Compound | IC50 [nM] |
| --- | --- |
| O=C(NCC(CC1(C(F)(F)F)CC1)c1ccc(C(F)(F)F)nc1)c1ccccc1Cl (single isomer, unassigned; (-)) [(−)2-chloro-N-[3-[1-(trifluoromethyl)cyclopropyl]-2-[6-(trif] [(−)2-chloro-N-[3-[1-(trifluoromethyl)cyclopropyl]-2-[6-(trifluoromethyl)-3-pyridyl]propyl]benzamide] | 32 |
| O=C(NCC(CC1(F)CC1)c1ccc(C(F)(F)F)nc1)c1cccc(Cl)c1Cl (centres unmarked) [2,3-dichloro-N-[3-(1-fluorocyclopropyl)-2-[6-(trifluoromethyl)-3-pyridyl]propyl]benzamide] | 3.7 |
| O=C(NCC(c1ccc(F)cc1)c1cnc(C(F)(F)F)nc1)c1cccc(Cl)c1Cl (single isomer, unassigned; (+)) [(+)2,3-dichloro-N-[2-(4-fluorophenyl)-2-[2-(trifluoromethyl)] [(+)2,3-dichloro-N-[2-(4-fluorophenyl)-2-[2-(trifluoromethyl)pyrimidin-5-yl]ethyl]benzamide] | 1.1 |
| COc1cccc(C(=O)NCC(CC2CC2)c2ccc(C(F)F)nc2)c1Cl (single isomer, unassigned; (+)) [(+)2-chloro-N-[3-cyclopropyl-2-[6-(difluoromethyl)-3-pyridyl]propyl]-3-methoxy-benzamide] | 4.4 |
| O=C(NCC(c1ccncc1)c1cnc(C(F)(F)F)nc1)c1cccc(Cl)c1Cl (centres unmarked) [2,3-dichloro-N-[2-(4-pyridyl)-2-[2-(trifluoromethyl)pyrimidin-5-yl]ethyl]benzamide] | 6.2 |
| O=C(NCC(CC1(C(F)(F)F)CC1)c1cnc(C(F)(F)F)nc1)c1cccc(Cl)c1Cl (single isomer, unassigned; (-)) [(−)2,3-dichloro-N-[3-[1-(trifluoromethyl)cyclopropyl]-2-[2-(] [(−)2,3-dichloro-N-[3-[1-(trifluoromethyl)cyclopropyl]-2-[2-(trifluoromethyl)pyrimidin-5-yl]propyl]benzamide] | 21 |
| Cc1ccc(C(CNC(=O)c2ccccc2C)CC(C)C)cn1 (centres unmarked) [2-Methyl-N-[4-methyl-2-(6-methyl-pyridin-3-yl)-pentyl]-benzamide] | 29 |
| O=C(NCC(c1cnc(C(F)(F)F)nc1)C1CCOCC1)c1c(F)cccc1Cl (single isomer, unassigned; (-)) [(−)2-chloro-6-fluoro-N-[2-tetrahydropyran-4-yl-2-[2-(trifluo] [(−)2-chloro-6-fluoro-N-[2-tetrahydropyran-4-yl-2-[2-(trifluoromethyl)pyrimidin-5-yl]ethyl]benzamide] | 68 |
| O=C(NCC(c1ccc(F)cc1)c1ccc(C(F)(F)F)nc1)c1ccccc1Cl (single isomer, unassigned; (-)) [(−)2-chloro-N-[2-(4-fluorophenyl)-2-[6-(trifluoromethyl)-3-p] [(−)2-chloro-N-[2-(4-fluorophenyl)-2-[6-(trifluoromethyl)-3-pyridyl]ethyl]benzamide] | 3.1 |
| O=C(NCC(CC1CC1)c1ccc(C(F)(F)F)nc1)c1c(Cl)cccc1Cl (single isomer, unassigned; (+)) [(+)2,6-dichloro-N-[3-cyclopropyl-2-[6-(trifluoromethyl)-3-py] [(+)2,6-dichloro-N-[3-cyclopropyl-2-[6-(trifluoromethyl)-3-pyridyl]propyl]benzamide] | 0.89 |
| O=C(NCC(c1ccccc1)c1ccc(Cl)cc1)c1cccc(Cl)c1Cl (centres unmarked) [2,3-dichloro-N-(2-(4-chlorophenyl)-2-phenylethyl)benzamide] | 120 |
| O=C(NCC1(c2ccc(C(F)(F)F)nc2)CCC(F)(F)CC1)c1ccccc1Cl [2-chloro-N-((4,4-difluoro-1-(6-(trifluoromethyl)pyridin-3-yl)cyclohexyl)methyl)benzamide] | 2 |
| O=C(NCC(c1ccc(F)cc1)c1ccc(C(F)(F)F)nc1)c1cccc(F)c1Cl (single isomer, unassigned; (-)) [(−)2-chloro-3-fluoro-N-[2-(4-fluorophenyl)-2-[6-(trifluorome] [(−)2-chloro-3-fluoro-N-[2-(4-fluorophenyl)-2-[6-(trifluoromethyl)-3-pyridyl]ethyl]benzamide] | 7 |
| Cc1ccc(C(CNC(=O)c2cccc(Cl)c2Cl)CC(C)C)cn1 (centres unmarked) [2,3-Dichloro-N-[4-methyl-2-(6-methyl-pyridin-3-yl)-pentyl]-benzamide] | 1 |
| O=C(NCC(CC1CC1)c1ccc(C(F)F)nc1)c1ccccc1Cl (single isomer, unassigned; (+)) [(+)2-chloro-N-[3-cyclopropyl-2-[6-(difluoromethyl)-3-pyridyl] [(+)2-chloro-N-[3-cyclopropyl-2-[6-(difluoromethyl)-3-pyridyl]propyl]benzamide] | 640 |
| O=C(NCC(CC1CC1)c1ccc(C(F)F)nc1)c1cccc(Cl)c1Cl (single isomer, unassigned; (+)) [(+)2,3-dichloro-N-[3-cyclopropyl-2-[6-(difluoromethyl)-3-pyridyl]propyl]benzamide] | 24 |

| Compound | IC50 [nM] |
| --- | --- |
| COc1cccc(C(=O)NCC2(c3ccc(F)nc3)CCC(F)(F)CC2)c1F | 100 |
| O=C(NCC(CC1(C(F)(F)F)CC1)c1ccc(C(F)(F)F)nc1)c1cccc(F)c1Cl (single isomer, unassigned; (-)) [(−)2-chloro-3-fluoro-N-[3-[1-(trifluoromethyl)cyclopropyl]-2] [(−)2-chloro-3-fluoro-N-[3-[1-(trifluoromethyl)cyclopropyl]-2-[6-(trifluoromethyl)-3-pyridyl]propyl]benzamide] | 16 |
| Cc1ncc(C(CNC(=O)c2cccc(Cl)c2Cl)C2CCOCC2)cn1 (single isomer, unassigned; (-)) [(−)2,3-dichloro-N-[2-(2-methylpyrimidin-5-yl)-2-tetrahydropy] [(−)2,3-dichloro-N-[2-(2-methylpyrimidin-5-yl)-2-tetrahydropyran-4-yl-ethyl]benzamide] | 58 |
| O=C(NCC(CC1CC1)c1ccc(C(F)F)nc1)c1ccccc1Cl (single isomer, unassigned; (-)) [(−)2-chloro-N-[3-cyclopropyl-2-[6-(difluoromethyl)-3-pyridyl] [(−)2-chloro-N-[3-cyclopropyl-2-[6-(difluoromethyl)-3-pyridyl]propyl]benzamide] | 17 |
| O=C(NCC(c1ccc(F)cc1)c1cnc(C(F)(F)F)nc1)c1ccccc1Cl (single isomer, unassigned; (+)) [(+)2-chloro-N-[2-(4-fluorophenyl)-2-[2-(trifluoromethyl)pyri] [(+)2-chloro-N-[2-(4-fluorophenyl)-2-[2-(trifluoromethyl)pyrimidin-5-yl]ethyl]benzamide] | 4.4 |
| COc1ccc(F)c(C(=O)NCC2(c3ccc(F)nc3)CCC(F)(F)CC2)c1 [N-((4,4-difluoro-1-(6-fluoropyridin-3-yl)cyclohexyl)methyl)-2-fluoro-5-methoxybenzamide] | 65 |
| (−)2,3-dichloro-N-[3-cyclopropyl-2]benzamide | 1.9 |
| CS(=O)(=O)c1ccc(Cl)c(C(=O)NCC(CC2CC2)c2ccc(C(F)(F)F)nc2)c1 (single isomer, unassigned; (-)) [(−)2-chloro-N-[3-cyclopropyl-2-[6-(trifluoromethyl)-3-pyridy] [(−)2-chloro-N-[3-cyclopropyl-2-[6-(trifluoromethyl)-3-pyridyl]propyl]-5-methylsulfonyl-benzamide] | 8.1 |
| O=C(NCC(c1ccc(F)cc1)c1ccc(C(F)(F)F)nc1)c1c(F)cccc1Cl (single isomer, unassigned; (-)) [(−)2-chloro-6-fluoro-N-[2-(4-fluorophenyl)-2-[6-(trifluorome] [(−)2-chloro-6-fluoro-N-[2-(4-fluorophenyl)-2-[6-(trifluoromethyl)-3-pyridyl]ethyl]benzamide] | 8.5 |
| O=C(NCC(CC1CC1)c1cnc(C(F)(F)F)nc1)c1ccccc1Cl (single isomer, unassigned; (+)) [(+)2-chloro-N-[3-cyclopropyl-2-[2-(trifluoromethyl)pyrimidin] [(+)2-chloro-N-[3-cyclopropyl-2-[2-(trifluoromethyl)pyrimidin-5-yl]propyl]benzamide] | 38 |
| O=C(NCC(CC1(C(F)(F)F)CC1)c1ccc(C(F)(F)F)nc1)c1ccccc1Cl (single isomer, unassigned; (+)) [(+)2-chloro-N-[3-[1-(trifluoromethyl)cyclopropyl]-2-[6-(trif] [(+)2-chloro-N-[3-[1-(trifluoromethyl)cyclopropyl]-2-[6-(trifluoromethyl)-3-pyridyl]propyl]benzamide] | 0.09 |
| O=C(NCC(CC1(C(F)(F)F)CC1)c1cnc(C(F)(F)F)nc1)c1cccc(F)c1Cl (single isomer, unassigned; (-)) [(−)2-chloro-3-fluoro-N-[3-[1-(trifluoromethyl)cyclopropyl]-2] [(−)2-chloro-3-fluoro-N-[3-[1-(trifluoromethyl)cyclopropyl]-2-[2-(trifluoromethyl)pyrimidin-5-yl]propyl]benzamide] | 29 |
| O=C(NCC(CC1(C(F)(F)F)CC1)c1cnc(C(F)(F)F)nc1)c1ccccc1Cl (single isomer, unassigned; (+)) [(+)2-chloro-N-[3-[1-(trifluoromethyl)cyclopropyl]-2-[2-(trifluoromethyl)pyrimidin-5-yl]propyl]benzamide] | 2.4 |
| COc1cccc(C(=O)NCC2(c3ccc(C(F)(F)F)nc3)CCC(F)(F)CC2)c1C [N-((4,4-difluoro-1-(6-(trifluoromethyl)pyridin-3-yl)cyclohexyl)methyl)-3-methoxy-2-methylbenzamide] | 1.6 |
| O=C(NCC(CC1(C(F)(F)F)CC1)c1ccc(C2CC2)nc1)c1ccccc1F (centres unmarked) [N-[2-(6-cyclopropyl-3-pyridyl)-3-[1-(trifluoromethyl)cyclopropyl]propyl]-2-fluoro-benzamide] | 1700 |

Same assay, conditions: listed as (−)N-[3-cyclopropyl-2-[6-(trifluoromethyl)-3-pyridyl]propyl]-2-methoxy-benzamide

| Compound | IC50 [nM] |
| --- | --- |
| COc1ccccc1C(=O)NCC(CC1CC1)c1ccc(C(F)(F)F)nc1 (single isomer, unassigned) [Example 4o, (−)—N-(3-cyclopropyl-2-(6-(trifluoromethyl)pyridin-3-yl)propyl)-2-methoxybenzamide] | 53 |
